The source of these data is US9527867B2, “Antibacterial biaromatic derivatives” (Actelion Pharmaceuticals Ltd., priority 2013, dated 2016).

In brackets after ≈: the same amount, converted by molar mass.

What all share (test): Bacterial growth minimal inhibitory concentration (broth microdilution, CLSI M7-A7)
Common to all, as to format: cell-based
A general note: Dilution methods test growth across graded concentrations, often in twofold steps.

Assay [1] has as its system Enterococcus faecium A949. To be noted: Enterococcus faecium, A949, cation-adjusted Mueller-Hinton Broth, multiply-resistant strain (in particular quinolone-resistant), read-out: MIC for E. faecium A949. Here is the method:
(§1) Minimal Inhibitory Concentrations (MICs; mg/L) were determined in cation-adjusted Mueller-Hinton Broth by a microdilution method following the description given in “Methods for Dilution Antimicrobial Susceptibility Tests for Bacteria that Grow Aerobically”, Approved standard, 7th ed., Clinical and Laboratory Standards Institute (CLSI) Document M7-A7, Wayne, Pa., USA (2006).
(§2) All Example compounds were tested against several Gram positive and Gram negative bacteria. […] Staphylococcus aureus A798, Enterococcus faecium A949 and Acinetobacter baumannii T6474 are multiply-resistant strains (in particular quinolone-resistant), while Moraxella catarrhalis A894 is a quinolone-sensitive strain and Staphylococcus aureus ATCC29213 is a methicillin-sensitive and quinolone-sensitive strain.

The subject of assay [2] is Staphylococcus aureus ATCC29213. The note with it: Staphylococcus aureus, ATCC29213, cation-adjusted Mueller-Hinton Broth, methicillin-sensitive and quinolone-sensitive strain, read-out: MIC for S. aureus ATCC29213. How it is done: as §1, §2
Assay [3] concerns Acinetobacter baumannii T6474. To be noted: Acinetobacter baumannii, T6474, cation-adjusted Mueller-Hinton Broth, multiply-resistant strain (in particular quinolone-resistant). How it is done:
as §1, §2

Assay [4] relates to Moraxella catarrhalis A894. To be noted: Moraxella catarrhalis, A894, cation-adjusted Mueller-Hinton Broth, quinolone-sensitive strain. How it is done:
as §1, §2

Assay [5] concerns Staphylococcus aureus A798. The note with it: Staphylococcus aureus, A798, cation-adjusted Mueller-Hinton Broth, multiply-resistant strain (in particular quinolone-resistant), read-out: MIC for S. aureus A798. Here is the method: as §1, §2

As to `COc1ccnc(-c2cccc(CNCC[C@@H]3CN(c4ccc5c(c4)NC(=O)CS5)C(=O)O3)c2)n1` [Example 23, 6-((R)-5-{2-[3-(4-methoxy-pyrimidin-2-yl)-benzylamino]-ethyl}-2-oxo-oxazolidin-3-yl)-4H-benzo[1,4]thiazin-3-one], the MIC (as a rule, the smallest concentration in the dilution series that meets the test's criterion for growth inhibition) in assay [1] is 1 µg/mL (≈ 2.03 µM); in assay [2], 0.063 µg/mL (≈ 0.128 µM); in assay [3] it was 0.25 µg/mL (≈ 0.509 µM); in assay [4], ≤ 0.016 µg/mL; in assay [5] it was 0.063 µg/mL (≈ 0.128 µM).
On to `COc1cc(-c2cccc(CNCC[C@@H]3CN(c4ccc5c(c4)NC(=O)CS5)C(=O)O3)c2)ncn1` [Example 24, 6-((R)-5-{2-[3-(6-methoxy-pyrimidin-4-yl)-benzylamino]-ethyl}-2-oxo-oxazolidin-3-yl)-4H-benzo[1,4]thiazin-3-one], for which the MIC was 4 µg/mL (≈ 8.14 µM) in assay [1]; 0.5 µg/mL (≈ 1.02 µM) in assay [2]; 1 µg/mL (≈ 2.03 µM) in assay [3]; 0.063 µg/mL (≈ 0.128 µM) in assay [4]; 0.5 µg/mL (≈ 1.02 µM) in assay [5].
Regarding `COc1cncc(-c2cccc(CNCC[C@@H]3CN(c4ccc5c(c4)NC(=O)CS5)C(=O)O3)c2)n1` [Example 25, 6-((R)-5-{2-[3-(6-methoxy-pyrazin-2-yl)-benzylamino]-ethyl}-2-oxo-oxazolidin-3-yl)-4H-benzo[1,4]thiazin-3-one], the MIC in assay [1] was 1 µg/mL (≈ 2.03 µM); in assay [2] it was 0.031 µg/mL (≈ 0.0631 µM); in assay [3] it was 0.25 µg/mL (≈ 0.509 µM); in assay [4] it was ≤ 0.016 µg/mL; in assay [5] it was 0.031 µg/mL (≈ 0.0631 µM).
Take `COc1cc(-c2cccc(CNCC[C@@H]3CN(c4ccc5c(c4)NC(=O)CS5)C(=O)O3)c2)nc(OC)n1` [Example 26, 6-((R)-5-{2-[3-(2,6-dimethoxy-pyrimidin-4-yl)-benzylamino]-ethyl}-2-oxo-oxazolidin-3-yl)-4H-benzo[1,4]thiazin-3-one]: the MIC in assay [1] worked out at 4 µg/mL (≈ 7.67 µM); in assay [2] it was 0.5 µg/mL (≈ 0.959 µM); in assay [3], 2 µg/mL (≈ 3.83 µM); in assay [4] it was 0.063 µg/mL (≈ 0.121 µM); in assay [5], 0.25 µg/mL (≈ 0.479 µM).
Taken in the same sequence, the figures for `COc1cc(OC)nc(-c2cccc(CNCC[C@@H]3CN(c4ccc5c(c4)NC(=O)CS5)C(=O)O3)c2)n1` [Example 27, 6-((R)-5-{2-[3-(4,6-dimethoxy-pyrimidin-2-yl)-benzylamino]-ethyl}-2-oxo-oxazolidin-3-yl)-4H-benzo[1,4]thiazin-3-one] were 1 µg/mL (≈ 1.92 µM), 0.063 µg/mL (≈ 0.121 µM), 0.5 µg/mL (≈ 0.959 µM), ≤ 0.016 µg/mL and 0.031 µg/mL (≈ 0.0594 µM).
Taken in the same sequence, the figures for `COc1nc(OC)nc(-c2cccc(CNCC[C@@H]3CN(c4ccc5c(c4)NC(=O)CS5)C(=O)O3)c2)n1` [Example 28, 6-((R)-5-{2-[3-(4,6-dimethoxy-[1,3,5]triazin-2-yl)-benzylamino]-ethyl}-2-oxo-oxazolidin-3-yl)-4H-benzo[1,4]thiazin-3-one] were 4 µg/mL (≈ 7.65 µM), 0.25 µg/mL (≈ 0.478 µM), 1 µg/mL (≈ 1.91 µM), 0.063 µg/mL (≈ 0.121 µM) and 0.25 µg/mL (≈ 0.478 µM).
Turning to `COc1cc(-c2cccc(CNCC[C@@H]3CN(c4ccc5c(c4)NC(=O)CS5)C(=O)O3)c2)ccc1C(N)=O` [Example 29, 3-methoxy-3′-({2-[(R)-2-oxo-3-(3-oxo-3,4-dihydro-2H-benzo[1,4]thiazin-6-yl)-oxazolidin-5-yl]-ethylamino}-methyl)-biphenyl-4-carboxylic acid amide], the MIC in assay [1] was 8 µg/mL (≈ 15 µM); in assay [2], 1 µg/mL (≈ 1.88 µM); in assay [3], 2 µg/mL (≈ 3.76 µM); in assay [4] it was 0.063 µg/mL (≈ 0.118 µM); in assay [5], 2 µg/mL (≈ 3.76 µM).
As to `COc1cnnc(-c2cccc(CNCC[C@@H]3CN(c4ccc5c(c4)NC(=O)CS5)C(=O)O3)c2)c1` [Example 30, 6-((R)-5-{2-[3-(5-methoxy-pyridazin-3-yl)-benzylamino]-ethyl}-2-oxo-oxazolidin-3-yl)-4H-benzo[1,4]thiazin-3-one], the MIC in assay [1] was 4 µg/mL (≈ 8.14 µM); in assay [2] it was 0.125 µg/mL (≈ 0.254 µM); in assay [3], 0.25 µg/mL (≈ 0.509 µM); in assay [4] it was 0.031 µg/mL (≈ 0.0631 µM); in assay [5], 0.125 µg/mL (≈ 0.254 µM).
Consider `COc1ccc(C#N)c(-c2cccc(CNCC[C@@H]3CN(c4ccc5c(n4)NC(=O)CO5)C(=O)O3)c2)c1` [Example 32, 5-methoxy-3′-({2-[(R)-2-oxo-3-(3-oxo-3,4-dihydro-2H-pyrido[3,2-b][1,4]oxazin-6-yl)-oxazolidin-5-yl]-ethylamino}-methyl)-biphenyl-2-carbonitrile], for which the MIC in assay [1] is 2 µg/mL (≈ 4 µM); in assay [2], 0.125 µg/mL (≈ 0.25 µM); in assay [3], 0.5 µg/mL (≈ 1 µM); in assay [4], ≤ 0.016 µg/mL; in assay [5], 0.125 µg/mL (≈ 0.25 µM).
For `N#Cc1cccc(-c2cccc(CNCC[C@@H]3CN(c4ccc5c(n4)NC(=O)CO5)C(=O)O3)c2)c1` [Example 33, 3′-({2-[(R)-2-oxo-3-(3-oxo-3,4-dihydro-2H-pyrido[3,2-b][1,4]oxazin-6-yl)-oxazolidin-5-yl]-ethylamino}-methyl)-biphenyl-3-carbonitrile], the MIC in assay [1] was 2 µg/mL (≈ 4.26 µM); in assay [2], 0.125 µg/mL (≈ 0.266 µM); in assay [3], 0.125 µg/mL (≈ 0.266 µM); in assay [4], ≤ 0.016 µg/mL; in assay [5] it was 0.25 µg/mL (≈ 0.532 µM).
On to `COc1cccc(-c2cccc(CNCCc3cn(-c4ccc5c(n4)NC(=O)CO5)c(=O)o3)c2)n1` [Example 35, 6-(5-{2-[3-(6-methoxy-pyridin-2-yl)-benzylamino]-ethyl}-2-oxo-oxazol-3-yl)-4H-pyrido[3,2-b][1,4]oxazin-3-one], for which the MIC in assay [1] was 1 µg/mL (≈ 2.11 µM); in assay [2] it was 0.063 µg/mL (≈ 0.133 µM); in assay [3], 0.125 µg/mL (≈ 0.264 µM); in assay [4], ≤ 0.016 µg/mL; in assay [5] it was 0.063 µg/mL (≈ 0.133 µM).
With `N#Cc1cccc(-c2cccc(CNCCc3cn(-c4ccc5c(n4)NC(=O)CO5)c(=O)o3)c2)c1` [Example 36, 3′-({2-[2-oxo-3-(3-oxo-3,4-dihydro-2H-pyrido[3,2-b][1,4]oxazin-6-yl)-2,3-dihydro-oxazol-5-yl]-ethylamino}-methyl)-biphenyl-3-carbonitrile], the MIC in assay [1] is 0.5 µg/mL (≈ 1.07 µM); in assay [2], 0.063 µg/mL (≈ 0.135 µM); in assay [3] it was 0.063 µg/mL (≈ 0.135 µM); in assay [4], ≤ 0.016 µg/mL; in assay [5], 0.063 µg/mL (≈ 0.135 µM).
Take `COc1ccc(C#N)c(-c2cccc(CNCCc3cn(-c4ccc5c(n4)NC(=O)CO5)c(=O)o3)c2)c1` [Example 37, 5-methoxy-3′-({2-[2-oxo-3-(3-oxo-3,4-dihydro-2H-pyrido[3,2-b][1,4]oxazin-6-yl)-2,3-dihydro-oxazol-5-yl]-ethylamino}-methyl)-biphenyl-2-carbonitrile]: the MIC in assay [1] is 1 µg/mL (≈ 2.01 µM); in assay [2], 0.063 µg/mL (≈ 0.127 µM); in assay [3], 0.25 µg/mL (≈ 0.503 µM); in assay [4] it was ≤ 0.016 µg/mL; in assay [5], 0.063 µg/mL (≈ 0.127 µM).
For the molecule `N#Cc1ccc(O)c(-c2cc(CNCC[C@@H]3CN(c4ccc5c(c4)NC(=O)CS5)C(=O)O3)ccn2)c1` [Example 38, 4-hydroxy-3-[4-({2-[(R)-2-oxo-3-(3-oxo-3,4-dihydro-2H-benzo[1,4]thiazin-6-yl)-oxazolidin-5-yl]-ethylamino}-methyl)-pyridin-2-yl]-benzonitrile], the MIC in assay [1] is 0.125 µg/mL (≈ 0.249 µM); in assay [2], ≤ 0.016 µg/mL; in assay [3], 0.063 µg/mL (≈ 0.126 µM); in assay [4] it was ≤ 0.016 µg/mL; in assay [5] it was ≤ 0.016 µg/mL.
Consider `COc1cccc(-c2cc(CNCC[C@@H]3CN(c4ccc5c(c4)NC(=O)CS5)C(=O)O3)ccn2)c1` [Example 39, 6-[(R)-5-(2-{[2-(3-methoxy-phenyl)-pyridin-4-ylmethyl]-amino}-ethyl)-2-oxo-oxazolidin-3-yl]-4H-benzo[1,4]thiazin-3-one], for which the MIC in assay [1] came out at 4 µg/mL (≈ 8.15 µM); in assay [2], 1 µg/mL (≈ 2.04 µM); in assay [3], 2 µg/mL (≈ 4.08 µM); in assay [4], 0.125 µg/mL (≈ 0.255 µM); in assay [5] it was 1 µg/mL (≈ 2.04 µM).
Consider `N#Cc1cccc(-c2cccc(CNCC[C@H]3CN(c4ccc5c(n4)NC(=O)CO5)C(=O)O3)c2)c1` [Example 40, 3′-({2-[(S)-2-oxo-3-(3-oxo-3,4-dihydro-2H-pyrido[3,2-b][1,4]oxazin-6-yl)-oxazolidin-5-yl]-ethylamino}-methyl)-biphenyl-3-carbonitrile], for which the MIC in assay [1] was 2 µg/mL (≈ 4.26 µM); in assay [2], 0.125 µg/mL (≈ 0.266 µM); in assay [3] it was 0.25 µg/mL (≈ 0.532 µM); in assay [4], ≤ 0.016 µg/mL; in assay [5], 0.125 µg/mL (≈ 0.266 µM).
On to `COc1cccc(-c2cccc(CNCC[C@H]3CN(c4ccc5c(n4)NC(=O)CO5)C(=O)O3)c2)n1` [Example 41, 6-((S)-5-{2-[3-(6-methoxy-pyridin-2-yl)-benzylamino]-ethyl}-2-oxo-oxazolidin-3-yl)-4H-pyrido[3,2-b][1,4]oxazin-3-one], for which the minimal inhibitory concentration (MIC) in assay [1] was 1 µg/mL (≈ 2.1 µM); in assay [2], 0.063 µg/mL (≈ 0.132 µM); in assay [3], 0.25 µg/mL (≈ 0.526 µM); in assay [4], ≤ 0.016 µg/mL; in assay [5], 0.063 µg/mL (≈ 0.132 µM).
With `COc1ccc(C#N)c(-c2cccc(CNCC[C@H]3CN(c4ccc5c(n4)NC(=O)CO5)C(=O)O3)c2)c1` [Example 42, 5-methoxy-3′-({2-[(S)-2-oxo-3-(3-oxo-3,4-dihydro-2H-pyrido[3,2-b][1,4]oxazin-6-yl)-oxazolidin-5-yl]-ethylamino}-methyl)-biphenyl-2-carbonitrile], the MIC in assay [1] was 1 µg/mL (≈ 2 µM); in assay [2] it was 0.063 µg/mL (≈ 0.126 µM); in assay [3], 0.5 µg/mL (≈ 1 µM); in assay [4] it was ≤ 0.016 µg/mL; in assay [5], 0.125 µg/mL (≈ 0.25 µM).
